Like-named read-outs stand apart in the source and are kept apart here.
What was measured:
rA2A adenosine receptor = target: T1, rA2A adenosine receptor (Rattus norvegicus, UniProt P30543); assay: Rat A2A adenosine receptor binding assay, [3H]SCH58261 displacement, rat striatum membranes
T1 construct: membranes of rat striatum (80-100 μmg of protein/assay); from tissue; host or cells: striatum of male Wistar rats
Method: (§1) Male Wistar rats (200-250 g) were decapitated and the whole brain and striatum dissected on ice. […] The homogenate was centrifuged at 48,000 for 10 min, and the pellet was resuspended in the same buffer containing 2 IU/mL adenosine deaminase. After 30 min incubation at 37° C., the membranes were centrifuged and pellets were stored at −80° C. Prior to freezing, an aliquot of homogenate was removed for protein assay with bovine albumin as reference standard. Binding assays were performed on rat brain and striatum membranes respectively, in the presence of 10 mM MgCl2 at 25° C.
(§2) Separation of bound from free radio ligand was performed by rapid filtration through Whatman GF/B filters which were washed three times with ice-cold buffer. Filter bound radioactivity was measured by scintillation spectrometry after addition of 5 mL of Aquassure. […] Ki values were calculated from the Cheng-Prusoff equation. All binding data were analyzed using the nonlinear regression curve-fitting computer program LIGAND.

[1] = target: T2, human recombinant A3 adenosine receptor (Homo sapiens, UniProt P0DMS8); assay: Human cloned A3 adenosine receptor binding assay, [125I]AB-MECA, HEK-293 membranes; design: USA; host or cells: HEK-293; conditions: for Ki: HEK-293 membranes, [125I]AB-MECA, read-out: hA3 (Ki); for rA1/hA3 / rA2A/hA3: selectivity ratio of Ki values
T2 sequence (P0DMS8 1-318): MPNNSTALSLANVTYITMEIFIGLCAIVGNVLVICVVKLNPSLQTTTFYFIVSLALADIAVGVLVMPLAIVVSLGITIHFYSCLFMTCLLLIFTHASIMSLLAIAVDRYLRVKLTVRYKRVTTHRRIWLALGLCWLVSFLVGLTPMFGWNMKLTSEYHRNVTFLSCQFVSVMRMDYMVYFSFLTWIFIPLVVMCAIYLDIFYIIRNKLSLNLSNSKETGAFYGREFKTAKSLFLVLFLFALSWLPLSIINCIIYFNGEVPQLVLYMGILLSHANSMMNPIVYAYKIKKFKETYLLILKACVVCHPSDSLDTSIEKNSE

rA1 adenosine receptor = target: T3, rA1 adenosine receptor (Rattus norvegicus, UniProt P25099); assay: Rat A1 adenosine receptor binding assay, [3H]CHA displacement, rat brain membranes
T3 construct: membranes of rat brain (150-200 μg- of protein/assay); from tissue; host or cells: whole brain of male Wistar rats
T3 sequence (P25099 1-326): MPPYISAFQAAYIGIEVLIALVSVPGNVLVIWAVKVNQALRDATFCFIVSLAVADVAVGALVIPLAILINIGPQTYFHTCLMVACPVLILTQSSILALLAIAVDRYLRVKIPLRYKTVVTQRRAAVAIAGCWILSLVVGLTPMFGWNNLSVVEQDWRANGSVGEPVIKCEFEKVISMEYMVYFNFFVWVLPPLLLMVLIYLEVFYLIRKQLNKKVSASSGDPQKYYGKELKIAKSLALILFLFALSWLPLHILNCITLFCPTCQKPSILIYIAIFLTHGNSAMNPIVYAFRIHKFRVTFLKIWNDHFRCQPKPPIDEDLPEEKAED
Method: as §1, §2

[2] = rat striatum membranes, [3H]SCH58261, read-out: rA2A (Ki)

T1 sequence (P30543 whole entry): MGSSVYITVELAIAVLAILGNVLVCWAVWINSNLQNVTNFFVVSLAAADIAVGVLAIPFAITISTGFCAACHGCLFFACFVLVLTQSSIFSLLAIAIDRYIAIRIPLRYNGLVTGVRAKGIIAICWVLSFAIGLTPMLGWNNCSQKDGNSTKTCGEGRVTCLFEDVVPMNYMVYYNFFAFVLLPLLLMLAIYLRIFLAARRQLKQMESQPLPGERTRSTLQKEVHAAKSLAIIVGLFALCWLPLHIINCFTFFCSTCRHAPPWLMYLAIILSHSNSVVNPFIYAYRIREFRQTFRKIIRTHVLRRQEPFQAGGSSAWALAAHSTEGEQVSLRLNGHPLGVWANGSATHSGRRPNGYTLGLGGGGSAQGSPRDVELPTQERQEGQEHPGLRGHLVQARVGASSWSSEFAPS

SMILES	Ki (rA2A adenosine receptor; [2])	Ki [1]	rA1/hA3 [1]	rA2A/hA3 [1]	Ki (rA1 adenosine receptor)	Ki (rA2A adenosine receptor)	affinity for A2A adenosine receptors (in words) (rA2A adenosine receptor)	Ki (rA2A adenosine receptor; read-out: rA2A (Ki))	affinity at human adenosine A3 receptor subtype (in words) ([1]; discussion of Table 1)	affinity and selectivity for the A3 receptor subtype (in words) ([1]; discussion of Table 1)
CC(C)=CCn1cc2c(nc(NC(=O)Nc3cccc(Cl)c3)n3nc(-c4ccco4)nc23)n1 [Compound 52]	1450 nM	147 nM	25.4	9.8	3740 nM					
CC(C)=CCn1cc2c(nc(N)n3nc(-c4ccco4)nc23)n1 [Compound 39, 5-Amino-8-(2-isopentenyl)-2-(2-furyl)-pyrazolo[4,3-e]1,2,4-triazolo[1,5-c]pyrimidine]	1.45 nM	887 nM	0.01	0.001	10.1 nM					
CCCCn1cc2c(nc(NC(=O)Nc3cccc(Cl)c3)n3nc(-c4ccco4)nc23)n1 [Compound 48, 5-[[(3-Chlorophenyl)amino]carbonyl]amino-8-butyl-2-(2-furyl)-pyrazolo[4,3-e]1,2,4-triazolo[1,5-c]pyrimidine]	498 nM	0.75 nM	2,020	664	1520 nM					
O=C(Nc1cccc(Cl)c1)Nc1nc2nn(CCCc3ccccc3)cc2c2nc(-c3ccco3)nn12 [Compound 56, 5-[[(3-Chlorophenyl)amino]carbonyl]amino-8-(3-(phenyl)propyl)-2-(2-furyl)-pyrazolo[4,3-e]1,2,4-triazolo[1,5-c]pyrimidine]	3200 nM	42.6 nM	>234	75	> 10000 nM					
O=C(Nc1cccc(Cl)c1)Nc1nc2nn(CCc3ccccc3)cc2c2nc(-c3ccco3)nn12 [Compound 54, 5-[[(3-Chlorophenyl)amino]carbonyl]amino-8-(2-(phenyl)ethyl)-2-(2-furyl)-pyrazolo[4,3-e]1,2,4-triazolo[1,5-c]pyrimidine]	1700 nM	13.3 nM	79	128	1050 nM					
CCCCn1cc2c(nc(NC(=O)Nc3ccc(OC)cc3)n3nc(-c4ccco4)nc23)n1 [Compound 49, 5-[[(4-Methoxyphenyl)amino]carbonyl]amino-8-butyl-2-(2-furyl)-pyrazolo[4,3-e]1,2,4-triazolo[1,5-c]pyrimidine]		0.3 nM			2100 nM	649 nM				
CCCn1cc2c(nc(NC(=O)Nc3ccc(OC)cc3)n3nc(-c4ccco4)nc23)n1 [Compound 47, 5-[[(4-Methoxyphenyl)amino]carbonyl]amino-8-propyl-2-(2-furyl)-pyrazolo[4,3-e]1,2,4-triazolo[1,5-c]pyrimidine]					> 10000 nM					
CCn1cc2c(nc(NC(=O)Nc3cccc(Cl)c3)n3nc(-c4ccco4)nc23)n1 [Compound 44, 5-[[(3-Chlorophenyl)amino]carbonyl]amino-8-ethyl-2-(2-furyl)-pyrazolo[4,3-e]1,2,4-triazolo[1,5-c]pyrimidine]	2800 nM	2.09 nM	1,291	1,339	2700 nM					
COc1ccc(NC(=O)Nc2nc3nn(CCC(C)C)cc3c3nc(-c4ccco4)nn23)cc1 [Compound 51, 5-[[(4-Methoxyphenyl)amino]carbonyl]amino-8-isopentyl-2-(2-furyl)-pyrazolo[4,3-e]1,2,4-triazolo[1,5-c]pyrimidine]	376 nM	29.6 nM	16	13	476 nM					
Cn1cc2c(nc(N)n3nc(-c4ccco4)nc23)n1 [Compound 34, 5-Amino-8-methyl-2-(2-furyl)-pyrazolo[4,3-e]1,2,4-triazolo[1,5-c]pyrimidine]	30.6 nM	557 nM	0.56	0.05						
COc1ccc(NC(=O)Nc2nc3nn(CCCc4ccccc4)cc3c3nc(-c4ccco4)nn23)cc1 [Compound 57, 5-[[(4-Methoxyphenyl)amino]carbonyl]amino-8-(3(phenyl)propyl)-2-(2-furyl)-pyrazolo[4,3-e]1,2,4-triazolo[1,5-c]pyrimidine]	> 10000 nM	19.8 nM	76.4	>504	1510 nM					
CCCCn1cc2c(nc(N)n3nc(-c4ccco4)nc23)n1 [Compound 37, 5-Amino-8-butyl-2-(2-furyl)-pyrazolo[4,3-e]1,2,4-triazolo[1,5-c]pyrimidine]		1110 nM	0.02	0.003	26.3 nM					
CCCn1cc2c(nc(N)n3nc(-c4ccco4)nc23)n1 [Compound 36, 5-Amino-8-propyl-2-(2-furyl)-pyrazolo[4,3-e]1,2,4-triazolo[1,5-c]pyrimidine]	20.2 nM	613 nM	0.22	0.03	139 nM					
COc1ccc(NC(=O)Nc2nc3nn(C)cc3c3nc(-c4ccco4)nn23)cc1 [Compound 43, 5-[[(4-Methoxyphenyl)amino]carbonyl]amino-8-methyl-2-(2-furyl)-pyrazolo[4,3-e]1,2,4-triazolo[1,5-c]pyrimidine]	> 10000 nM	0.1 nM	>100,000	>100,000	> 10000 nM					
O=C(Cc1ccccc1)Nc1nc2nn(CCCc3ccccc3)cc2c2nc(-c3ccco3)nn12 [Compound 59, 5-[(Benzyl)carbonyl]amino-8-(3-(phenyl)propyl)-2-(2-furyl)-pyrazolo[4,3-e]1,2,4-triazolo[1,5-c]pyrimidine]	400 nM	121 nM	2.8	3.3	345 nM					
COc1ccc(NC(=O)Nc2nc3nn(CC=C(C)C)cc3c3nc(-c4ccco4)nn23)cc1 [Compound 53, 5-[[(4-Methoxyphenyl)amino]carbonyl]amino-8-(2-isopentenyl)-2-(2-furyl)-pyrazolo[4,3-e]1,2,4-triazolo[1,5-c]pyrimidine]	> 10000 nM	29.6 nM	179	>338	5300 nM					
CCCn1cc2c(nc(NC(=O)Nc3cccc(Cl)c3)n3nc(-c4ccco4)nc23)n1 [Compound 46, 5-[[(3-Chlorophenyl)amino]carbonyl]amino-8-propyl-2-(2-furyl)-pyrazolo[4,3-e]1,2,4-triazolo[1,5-c]pyrimidine]	< 10000 nM	0.49 nM	3,228	>20,408	1580 nM					
Nc1nc2nn(CCc3ccccc3)cc2c2nc(-c3ccco3)nn12 [Compound 40, 5-Amino-8-(2-(phenyl)ethyl)-2-(2-furyl)-pyrazolo[4,3-e]1,2,4-triazolo[1,5-c]pyrimidine]		2780 nM			2.16 nM		great affinity	0.7 nM	low affinity	
CC(C)CCn1cc2c(nc(N)n3nc(-c4ccco4)nc23)n1 [Compound 38, 5-Amino-8-isopentyl-2-(2-furyl)-pyrazolo[4,3-e]1,2,4-triazolo[1,5-c]pyrimidine]		1160 nM			8.09 nM				low affinity	
CCn1cc2c(nc(NC(=O)Nc3ccc(OC)cc3)n3nc(-c4ccco4)nc23)n1 [Compound 45, 5-[[(4-Methoxyphenyl)amino]carbonyl]amino-8-ethyl-2-(2-furyl)-pyrazolo[4,3-e]1,2,4-triazolo[1,5-]pyrimidine]		0.28 nM	>35,714	>35,714						high affinity and selectivity

— US7271171B2, “Adenosine A3 receptor modulators” (King Pharmaceuticals Research and Development, Inc., priority 1998, dated 2007)
